Patent US20100184704A1, “USE OF THE PEPTIDE GLY-ARG-GLY-ASP-ASN-PRO AS A THERAPEUTIC AGENT” (priority 2007, published 2010)
Where a SMILES comes first, the peptide text is derived from it.

Tested on: drug-resistant Mycobacterium tuberculosis
Details: 5 micrograms per ml

N=C(N)NCCC[C@H](NC(=O)CN)C(=O)NCC(=O)N[C@@H](CC(=O)O)C(=O)N[C@@H](CC(N)=O)C(=O)N1CCC[C@H]1C(=O)O [Gly-Arg-Gly-Asp-Asn-Pro, Gly-Arg-Gly-Asp-Asn-Pro-OH] (H-GRGDNP-OH)
% inhibition: 0.0%
